Publication PMC6539525, “Design, Synthesis, and Mechanism of Dihydroartemisinin–Coumarin Hybrids as Potential Anti-Neuroinflammatory Agents” (Molecules, 2019)
Read-outs that look alike come from different tables or passages of the source.

Key:
HT-29 cells = assay: MTT cytotoxicity in HT-29 cells; type: cell-based, Human; conditions: Homo sapiens, MTT
Protocol: (§1) As the anti-neuroinflammatory agents for cancer patients, all newly synthesized compounds were evaluated in vitro for antitumor activity against human breast cancer cell line MDA-MB-231, colorectal cancer cells HT-29 and HCT-116, and lung cancer cell line A549 by using the standard MTT method, respectively. Doxorubicin (DOX) and DHA were used as the reference standard. Additionally, owing to the rapid proliferation, the tumor cells actually was always in hypoxia condition. Therefore, the in vitro cytotoxicity was evaluated in two different conditions (hypoxia and normoxia).
After recovery, the cells were cultured in 96-well plates for 24 h at 37 °C in a humidified atmosphere with 95% air and 5% CO2. After treated with different tested compounds, the hypoxia groups were placed in a sealed hypoxia incubator chamber (Stemcell Technologies, Inc., Vancouver, BC, Canada) filled with 5% CO2 and 95% N2 for 24 h, and then transferred to the incubator chamber filled with air for 72 h. […]
(§2) Cancer cells HT-29 (Human Colorectal Adenocarcinoma cell line), MDA-MB-231 (Human Breast Cancer cell line), HCT-116 (Human Colorectal Carcinoma cell line), and A549 (Human Lung Adenocarcinomic cell line) were from ATCC.
When the adherent cells reached 80% confluence, the culture medium was discarded. The cells were digested by trypsin and collected after centrifugation. The fresh culture medium was gently blown into it to form single-cell suspension. Cell suspension will be diluted to 1.5–3 × 10^4 cells/mL. Each hole of 96-well plates was added 100 μL cell suspension and incubated for 24 h (5% CO2; 37 °C). Then the holes were added different concentrations of tested compounds. The early screening concentration is set to 100 μM, 50 μM, 25 μM, 12.5 μM, and 6.25 μM. Three replicates were made for each concentration of the tested compounds. […] The medium was discarded and each well was added 100 μL DMSO to dissolve the formazan blue. Absorbance was measured at 570 nm with a microplate reader (Synergy-HT, BioTek Instruments, Winooski, VT, USA). […]

MDA-MB-231 cells = assay: MTT cytotoxicity in MDA-MB-231 cells; type: cell-based; conditions: Homo sapiens
Protocol: as §1
(§3) After recovery, the cells were cultured in 96-well plates for 24 h at 37 °C in a humidified atmosphere with 95% air and 5% CO2. After treated with different tested compounds, the hypoxia groups were placed in a sealed hypoxia incubator chamber (Stemcell Technologies, Inc., Vancouver, BC, Canada) filled with 5% CO2 and 95% N2 for 24 h, and then transferred to the incubator chamber filled with air for 72 h. On the contrary, the normoxia groups were cultured under air condition for 96h.
as §2
(§4) When the adherent cells reached 80% confluence, the culture medium was discarded. The cells were digested by trypsin and collected after centrifugation. The fresh culture medium was gently blown into it to form single-cell suspension. Cell suspension will be diluted to 1.5–3 × 10^4 cells/mL. Each hole of 96-well plates was added 100 μL cell suspension and incubated for 24 h (5% CO2; 37 °C). Then the holes were added different concentrations of tested compounds. The early screening concentration is set to 100 μM, 50 μM, 25 μM, 12.5 μM, and 6.25 μM. Three replicates were made for each concentration of the tested compounds. After the cells were grown for 96h, 20 μL MTT (5 mg/mL) was added to each well and incubated for 4 h. The medium was discarded and each well was added 100 μL DMSO to dissolve the formazan blue. Absorbance was measured at 570 nm with a microplate reader (Synergy-HT, BioTek Instruments, Winooski, VT, USA).
(§5) Hypoxia condition: The cells were treated with different concentration of tested compounds, placed in hypoxia chamber (Catalog Number 27310, Stemcell Technologies, Inc., Vancouver, BC, Canada), and incubated for 24 h ([…]; 37 °C). Then the cells were placed in normoxia condition (5% CO2; 37 °C) and incubated for 72 h.

HCT-116 cells = assay: MTT cytotoxicity in HCT-116 cells; type: cell-based; conditions: Homo sapiens
Protocol: as §1, §3, §2, §4, §5

A549 cells = assay: MTT cytotoxicity in A549 cells; type: cell-based; conditions: Homo sapiens
Protocol: as §1, §3, §2, §4, §5

[1] = test system: NO release of LPS-induced microglial N9 cells; assay: Inhibition of NO release in LPS-induced N9 cells (Griess); type: cell-based, murine; conditions: Mus musculus, 1 μg/mL LPS for 48 h, NO level in medium
Protocol: (§6) The anti-neuroinflammatory activity of DCH was evaluated and then the representative compounds were selected for the further study. […] In addition, in order to exclude the death influence, MTT-IC20 of all the compounds were measured. […] The exact reason was still unclear, but we supposed that it might be related to the homeostasis of cells. The tumor cells actually were always in hypoxia condition, in which DCH could promote the cytotoxic activity against tumor cells. In brief, DCH could reduce the release of NO caused by LPS-induced microglial cells.
(§7) N9 cells, which were in the logarithmic phase, were incubated for 24 h by adherent culture. Subsequently, the medium was changed to new one without serum. The cells were treated with different concentration of tested compounds. After specific time in the LPS condition, the supernatants were collected and analyzed.
The nitrite levels in medium were determined by Griess reaction. The absorbance was measured at 540 nm using a microplate reader.

[2] = MTT cytotoxicity in N9 cells; type: cell-based, murine; conditions: mouse, N9 microglial cells, cytotoxic activity
Protocol: as §6, §4, §7

[3] = test system: TNF-α release of LPS-induced N9 cells; assay: TNF-α release of LPS-induced N9 cells (cytokine kit); type: cell-based, murine; conditions: compound 1 μM, LPS 1 μg/mL, 48 h; for inhibition at 1 µM: Mus musculus
Protocol: as §7
(§8) The secreted level of TNF-α and IL-6 was measured using mouse Th1/Th2/Th17 Cytokine Kit, purchased from BD Pharningen. The data was analyzed by FCAP Array v3.0. IL-2, IL-4, IL-10, IL-17A, and IFN-γ were not detected in the experiment.

[4] = test system: IL-6 release of LPS-induced N9 cells; assay: IL-6 release of LPS-induced N9 cells (cytokine kit); type: cell-based, murine; conditions: compound 1 μM, LPS 1 μg/mL, 48 h; for inhibition at 1 µM: Mus musculus
Protocol: as §7, §8

[5] = HT-29, hypoxia 24 h then normoxia 72 h, read-out: IC50 HT-29 Hypoxia
[6] = HT-29, normoxia 96 h, read-out: IC50 HT-29 Normoxia
[7] = MDA-MB-231, hypoxia 24 h then normoxia 72 h, read-out: IC50 MDA-MB-231 Hypoxia
[8] = MDA-MB-231, normoxia 96 h, read-out: IC50 MDA-MB-231 Normoxia
[9] = HCT-116, hypoxia 24 h then normoxia 72 h, read-out: IC50 HCT-116 Hypoxia
[10] = HCT-116, normoxia 96 h, read-out: IC50 HCT-116 Normoxia
[11] = A549, hypoxia 24 h then normoxia 72 h, read-out: IC50 A549 Hypoxia
[12] = A549, normoxia 96 h, read-out: IC50 A549 Normoxia

IC50 [1] | melting point | Structure (SMILES) | IC50 (HT-29 cells; [5]) | IC50 (HT-29 cells; [6]) | IC50 (MDA-MB-231 cells; [7]) | IC50 (MDA-MB-231 cells; [8]) | IC50 (HCT-116 cells; [9]) | IC50 (HCT-116 cells; [10]) | IC50 (A549 cells; [11]) | IC50 (A549 cells; [12]) | IC20 [2] | inhibition at 1 µM [3] | TNF-α [3] | inhibition at 1 µM [4] | IL-6 [4]
0.64 µM | 138 to 140 °C | C[C@H]1[C@@H](OCCc2cn(Cc3cc4cc(Br)ccc4oc3=O)nn2)O[C@@H]2O[C@@]3(C)CC[C@H]4[C@H](C)CC[C@@H]1[C@@]24OO3 [2b, 6-bromo-3-((4-(2-((10S)-dihydroartemisininoxy)ethyl)-1H-1,2,3-triazol-1-yl)-methyl)-2H-1-chromen-2-one] | 12.1 µM | 9.75 µM | 36.9 µM | 37.7 µM | > 100 µM | 56 µM | 60.2 µM | > 100 µM | > 10 µM | 27.2% | 3285.99 ± 1062.40 pg/mL | 30.9% | 797.52 ± 140.74 pg/mL
2.66 µM | 138 to 140 °C | C[C@H]1[C@@H](OCCc2cn(Cc3cc4cc(Cl)ccc4oc3=O)nn2)O[C@@H]2O[C@@]3(C)CC[C@H]4[C@H](C)CC[C@@H]1[C@@]24OO3 [2c, 6-chloro-3-((4-(2-((10S)-dihydroartemisininoxy)ethyl)-1H-1,2,3-triazol-1-yl)-methyl)-2H-1-chromen-2-one] | 19.6 µM | 17.5 µM | 32.5 µM | 44 µM | 64.4 µM | 49.5 µM | 66.9 µM | 87.2 µM | > 10 µM | 32.1% | 3077.03 ± 375.48 pg/mL | 26.4% | 850.24 ± 112.47 pg/mL
0.29 µM | 74 to 76 °C | C[C@H]1[C@@H](OCCCn2cc(COc3cc(=O)oc4ccccc34)nn2)O[C@@H]2O[C@@]3(C)CC[C@H]4[C@H](C)CC[C@@H]1[C@@]24OO3 [6j] | 7.42 µM | 10.5 µM | 33.4 µM | 67.4 µM | 32.8 µM | 25.9 µM | 49 µM | 53.4 µM | > 10 µM |  |  |  | 
1.91 µM | 80 to 82 °C | Cc1ccc2c(OCc3cn(CCCO[C@H]4O[C@@H]5O[C@@]6(C)CC[C@H]7[C@H](C)CC[C@@H]([C@H]4C)[C@@]57OO6)nn3)cc(=O)oc2c1 [6k] | 5.32 µM | 6.85 µM | 14.5 µM | 38.6 µM | 33.7 µM | 28.1 µM | 9.49 µM | 14.9 µM | > 10 µM |  |  |  | 
5.8 µM | 90 to 92 °C | Cc1cc(C)c2oc(=O)cc(OCc3cn(CCCO[C@H]4O[C@@H]5O[C@@]6(C)CC[C@H]7[C@H](C)CC[C@@H]([C@H]4C)[C@@]57OO6)nn3)c2c1 [6m] | 5.9 µM | 22.4 µM | 18.7 µM | 24.6 µM | 93.5 µM | 42.1 µM | 20.1 µM | 27.9 µM | > 10 µM |  |  |  | 
1.13 µM | 115 to 117 °C | Cc1ccc2c(OCc3cn(CCCO[C@H]4O[C@@H]5O[C@@]6(C)CC[C@H]7[C@H](C)CC[C@@H]([C@H]4C)[C@@]57OO6)nn3)cc(=O)oc2c1C [6n] | 4.19 µM | 9.16 µM | 10.8 µM | 13.3 µM | 33.7 µM | 22.5 µM | 0.039 µM | 30.4 µM | 6.53 µM |  |  |  | 
1.43 µM | 143 to 145 °C | Cc1cccc2c(OCc3cn(CCCO[C@H]4O[C@@H]5O[C@@]6(C)CC[C@H]7[C@H](C)CC[C@@H]([C@H]4C)[C@@]57OO6)nn3)cc(=O)oc12 [6o] | 29 µM | 81.6 µM | 18.6 µM | 47.6 µM | 42.4 µM | 12.1 µM | 39.9 µM | 78.1 µM | > 10 µM |  |  |  | 
